Results: US4173654A, “Novel fluorohydrocarbons” (California Institute of Technology, priority 1977, dated 1979)
Like-named read-outs stand apart in the source and are kept apart here.

Experiments:
[1] = Literature values or other data (D, V, δ, BP); format: physicochemical
[2] = Oxygen solubility measured by gas chromatograph having a thermal conductivity detector; format: physicochemical; settings: 25° C., 760 mm O2 pressure
Procedure: Oxygen solubilities were measured at 25° C. and 760 mm O2 pressure for representative hybrid, fluoroolefin and prior art compounds by means of a gas chromatograph having a thermal conductivity detector and calculated from molar volume and ΔH(vap) by the method of Fedors (Polymer, Engr. Sci. 14 147 (1974). Good agreement was obtained as shown in the following table: […]

[3] = 3M data; cited from earlier work

BP ([1]; 36mm) | SMILES | D ([1]; unit not given) | V ([1]; unit not given) | δ ([1]; unit not given) | Measured O2 Solubility [2] | BP ([1]; 735mm) | D [1] | V [1] | δ [1] | BP ([1]; 750mm) | 3M solubility data (Literature Values) [3]
53 °C | CCOC(=O)CC(C(F)(F)F)(C(F)(F)F)C(F)(F)F | 1.4895 | 205.5 | 7.39 | 34.4 cc O2 /100 cc FC |  |  |  |  |  | 
 | FC(F)(F)C(=C(C(F)(C(F)(F)F)C(F)(F)F)C(F)(C(F)(F)F)C(F)(F)F)C(F)(F)F | 1.820 | 219.8 | 6.4 | 39.5 cc O2 /100 cc FC | 110 °C |  |  |  |  | 
 | CCCCC(C(F)(F)F)(C(F)(F)F)C(F)(F)F [(CF3)3 C(CH2)3 CH3] |  |  |  | 41.2 cc O2 /100 cc FC |  | 1.393 g/cc | 198.3 cc/mole | 5.98 Hb | 101.5 °C | 
 | C=CCC(C(F)(F)F)(C(F)(F)F)C(F)(F)F [(CF3)3 CCH2 CHCH2] | 1.442 | 180.31 | 6.0 | 48 cc O2 /100 cc FC | 76 °C |  |  |  |  | 
 | FC(F)(F)C(F)(F)C(F)(F)C(F)(F)N(C(F)(F)C(F)(F)C(F)(F)C(F)(F)F)C(F)(F)C(F)(F)C(F)(F)C(F)(F)F [(n-C4 F9)3 N(FC-43), reference compound] |  |  |  | 36.8 cc O2 /100 cc FC |  |  |  |  |  | 38.9 cc O2 /100ccFC
